Entries after “also recorded” stand apart in the source; their conditions may differ.
Experiments:
EZH2 = EZH2 (Homo sapiens, UniProt Q15910); settings: read-out: EZH2 Ki^app; cited from earlier work
H3K27me3 = settings: cited from earlier work
PC9 DTP [1] = assay: HDAC biased inhibitors on PC9 DTP with erlotinib, 30 days; type: cell-based, human; settings: G946 50 nM, G877 5 μM, erlotinib 1 μM
Text: FIG. 17A, FIG. 17B and FIG. 17C | HDAC (1), 2 and 3 are involved in the establishment of drug tolerance. siRNA against HDAC2 and 3 as well as inhibitors that are HDAC1/2 or 3 biased disrupt the drug-tolerant state. (A-B) Effect of siRNA knockdown of essential components of HDAC2 and HDAC3 on PC9 parental (light grey bars: media conditions) or DTP (dark grey: erlotinib condition) cell number using 4 different specific siRNAs per gene. Data are presented along with the data for the non-targeting (NTC) and siTOX controls in similar treatment conditions. (C) Effect of (C1) G946, HDAC1/2 biased inhibitor, and (C2) G877, HDAC3 biased inhibitor. G946 and G877 were tested at concentrations 50 nM and 5 μM, respectively. PC9 cells were treated with (DTP) (DMSO/erlotinib or HDAC inhibitor/erlotinib) (C1 and C2) for 30 days or without erlotinib (parental) (DMSO/Media or HDAC inhibitor/Media) (data not shown). Erlotinib concentration 1 μM.
To further investigate the role of HDACs in the establishment of drug tolerance, siRNA against HDAC2 and 3 as well as inhibitors that are HDAC1/2 or 3 biased were tested for their ability to disrupt the drug-tolerant state.

PC9 cells = assay: DZNep cell treatment, PC9 parental/DTP cell viability (CyQUANT Direct); type: cell-based, human
Method: DZNep was tested at concentrations ranging from 0.625 to 40 μM (A). PC9 cells were treated for 48 hours either with DZNep (DZNep/Media or DZNep/erlotinib) or DMSO control (DMSO/Media or DMSO/erlotinib) before treatment with (DTP) (DMSO/erlotinib or DZNep/erlotinib) or without erlotinib (parental)(DMSO/Media or DZNep/Media) for 72 hours. Cell number was determined after a 48-72 hours recovery phase in media alone. Effect of DZNep at 5 (B) and 0.625 μM (C) on PC9 parental (solid gray bars: media conditions) or DTP (diamond bars: erlotinib condition) cell number.
PC9 cells were seeded in black 96 well clear bottom plates (Coming, catalog #3603) at 1000 cells per well before to be treated with various concentration of 3-deazaneplanocin A (DZNep) from 40 down to 0.625 μM. After 48 hours of DZNep treatment the media was replaced with fresh media alone or in presence of 1 μM erlotinib. After 72 hours of incubation the media +/− erlotinib was then replaced with fresh media to enable recovery of the drug tolerant persisters (DTPs) that survived after the drug treatment. After 3 days recovery phase, final cell viability was measured using CyQUANT Direct cell proliferation assay (Molecular Probes) according to the manufacturer protocol. CyQUANT fluorescent signal was detected using a GE IN Cell Analyzer 2000 (4× objective) and quantified as number of cell per well using an image analysis algorithm developed using GE Developer Tollbox 1.9.1. Screening data were subsequently processed in Microsoft Excel. The entire Epi300 siRNA screen was run on each cell line twice in completely independent conditions.

[2] = tested on: EZH2 levels and trimethylation of lysine 27 on histone H3; settings: cultured human acute myeloid leukemia, dose-dependent manner (0.2-1 μM); cited from earlier work
H3K27me3 in PC9 DTPs = assay: Histone H3K27me3 Western blot in PC9 DTPs treated with erlotinib; type: cell-based, human; settings: GSK126 0.1, 0.5, 2.5 μM, EPZ-6438 0.05, 0.1, 0.5, 1, 1.5 μM, erlotinib 1 μM
Method: FIG. 20A, FIG. 20B, FIG. 20C and FIG. 20D | EZH2 inhibitors (GSK126) disrupt the drug-tolerant state. (A) Increase in histone H3K27me^3 in PC9 DTPs treated with erlotinib is inhibited by EZH2 small molecule inhibitor (GSK126) at 0.1, 0.5, and 2.5 μM as shown by Western blot. (B) nuc-red PC9 cells were treated with DMSO/erlotinib or GSK126/erlotinib at 0.1, 0.5, or 2.5 μM (dark grey bar) or without erlotinib (DMSO/Media or GSK126/Media) (light grey bar) and analyzed IncuCyte™ at day 9 and 3, respectively. (C) nuc-red PC9 cells were treated with DMSO/erlotinib or GSK126/erlotinib at 2.5 μM for 9 days and imaged. (D) nuc-red PC9 cells were treated with DMSO/erlotinib or GSK126/erlotinib at 2.5 μM for 30 days and stained with Giemsa. Erlotinib concentration 1 μM for FIG. 20A, FIG. 20B, FIG. 20C and FIG. 20D.
(D) nuc-red PC9 cells were treated with DMSO/erlotinib or […] at 0.05, 0.1, or 1.0 μM) for 30 days and stained with Giemsa. Erlotinib concentration 1 μM for FIG. 22A, FIG. 22B, FIG. 22C and FIG. 22D.
(§1) Cell lysates were prepared in Laemmli sample buffer and analyzed by immunoblotting as described previously. Cell lysates were analyzed using commercial antibodies against modifications on H3 (Active Motif and Cell Signaling Technologies).

H3K27me3 in EVSAT DTPs = assay: Histone H3K27me3 Western blot in EVSAT DTPs treated with GDC-0908; type: cell-based; settings: GSK126 0.1, 0.5, 2.5 μM, EPZ-6438 0.05, 0.1, 0.5 μM, GDC-0908 2 μM
Method: GDC-0908 concentration 2 μM for FIG. 21A and FIG. 21B.
as §1

PC9 DTP [3] = assay: EZH2 inhibitors on PC9 DTP cell growth with erlotinib (IncuCyte, Giemsa); type: cell-based, human; settings: erlotinib 1 μM; GSK126 0.1-2.5 μM; EPZ-6438 0.05-1.5 μM; day 9 and 30 days
Method: (A) Effect of siRNA knockdown of EZH2 on PC9 parental (light grey bars: media conditions) or DTP (dark grey: erlotinib condition) cell number using 8 different specific siRNAs (Dharmacon siGenome (×4) and On-Target Plus (OTP)(×4)) per gene. […] (B) Effect of GSK126 was tested at a concentration 1 μM.

EVSAT DTP = assay: EZH2 inhibitors on EVSAT DTP cell growth with PI3K inhibitor (IncuCyte); type: cell-based; settings: GDC-0908 2 μM; GSK126 0.1, 0.5, 2.5 μM; EPZ-6438 0.05, 0.1, 0.5 μM
SKBR3 cells = assay: TSA on SKBR3 drug tolerant cells (radiotherapy or lapatinib); type: cell-based; settings: SKBR3, 2.5 Gy and 10 Gy, 25 nM TSA
Method: FIG. 16A, FIG. 16B and FIG. 16C | DTPs in a variety of models display increased sensitivity to HDAC inhibitors. (A) SKBR3 treated with 2.5 Gy in media alone or presence of 25 nM of the HDAC inhibitor TSA. (B) SKBR3 treated with 10 Gy in media alone or presence of 25 nM of the HDAC inhibitor TSA. (C) SKBR3 treated with 1 μM Lapatinib in media alone or presence of 25 nM of the HDAC inhibitor TSA.
The role of histone deacetylases was further test in additional models to elucidate their role in drug tolerance. The class I and II HDAC inhibitor TSA was tested in SKBR3 cells in combination with radiotherapy at 2.5 Gy and 10 Gy.

PC9 xenografts = assay: PC9 xenograft tumor study; type: in vivo; settings: nude mice
Method: FIG. 18 | Effect of HDAC Inhibition using TSA (0.5 mg/kg) on erlotinib response in PC9 xenografts.
PC9 cells were cultured in growth media (RPMI 1640, 10% heat-inactivated fetal calf serum, 2 mM L-glutamine) to 80% confluency and then trypsinized, washed once with PBS, and resuspended in either Hank's Balanced Salt Solution (HBSS) or a 1:1 mixture of HBSS with matrigel [growth factor reduced; catalog #356231 (BD Biosciences, West Grove, Pa.)] to a final concentration of 5×10^7 cells/ml. Each xenograft tumor model was established using 5×10^6 cells (100 μL) inoculated subcutaneously (s.c.) in the rear right flank of immunocompromised mice. PC-9 and PC-9-GFP cells were implanted in HBSS with matrigel in nude (nu/nu) mice (Charles River Laboratories, Hollister, Calif.). When tumor volumes reach approximately 100-200 mm^3, mice were separated into groups of animals with similarly sized tumors, and treatment was initiated the day after grouping. Mice were dosed for 5 days a week (QD) oral gavage (PO) with erlotinib (50 mg/kg in 7.5% Captisol for first 4 doses then lowered to 35 mg/kg in 7.5% Captisol) and/or TSA (0.5 mg/kg) with appropriate vehicle control. […]

Sequence of EZH2 (Q15910 whole entry): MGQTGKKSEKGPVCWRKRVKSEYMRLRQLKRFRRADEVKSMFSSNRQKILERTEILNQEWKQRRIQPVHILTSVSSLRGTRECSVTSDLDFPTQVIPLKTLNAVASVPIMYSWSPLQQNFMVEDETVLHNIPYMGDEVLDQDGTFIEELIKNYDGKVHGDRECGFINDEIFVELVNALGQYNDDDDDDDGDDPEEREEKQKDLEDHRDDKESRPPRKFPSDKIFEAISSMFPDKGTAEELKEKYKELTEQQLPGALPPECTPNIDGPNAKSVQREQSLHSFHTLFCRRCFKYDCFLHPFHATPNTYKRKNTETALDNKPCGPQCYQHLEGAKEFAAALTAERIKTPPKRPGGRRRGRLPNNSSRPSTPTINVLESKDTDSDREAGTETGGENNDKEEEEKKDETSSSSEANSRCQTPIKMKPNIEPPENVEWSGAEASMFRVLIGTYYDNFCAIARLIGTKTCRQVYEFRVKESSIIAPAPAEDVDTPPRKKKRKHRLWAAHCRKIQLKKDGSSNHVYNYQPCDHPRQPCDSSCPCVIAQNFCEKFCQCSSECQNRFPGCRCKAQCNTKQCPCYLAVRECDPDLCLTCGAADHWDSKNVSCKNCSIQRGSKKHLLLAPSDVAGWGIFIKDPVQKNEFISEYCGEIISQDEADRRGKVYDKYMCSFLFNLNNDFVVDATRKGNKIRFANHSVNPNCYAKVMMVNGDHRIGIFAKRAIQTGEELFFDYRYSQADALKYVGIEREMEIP
Sequence of EZH2 (O75530 whole entry partner): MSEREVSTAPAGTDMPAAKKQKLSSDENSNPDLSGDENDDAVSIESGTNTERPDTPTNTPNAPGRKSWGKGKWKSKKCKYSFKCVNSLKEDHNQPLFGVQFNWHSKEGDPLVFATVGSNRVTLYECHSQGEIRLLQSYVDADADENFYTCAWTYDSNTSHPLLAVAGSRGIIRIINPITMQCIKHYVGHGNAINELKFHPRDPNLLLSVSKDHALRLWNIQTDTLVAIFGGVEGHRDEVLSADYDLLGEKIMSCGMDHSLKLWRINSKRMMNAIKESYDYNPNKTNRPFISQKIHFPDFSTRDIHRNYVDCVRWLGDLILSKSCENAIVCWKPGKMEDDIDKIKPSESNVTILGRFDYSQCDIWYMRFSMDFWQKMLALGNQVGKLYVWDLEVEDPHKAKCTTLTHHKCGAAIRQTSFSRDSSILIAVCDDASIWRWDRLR
Sequence of EZH2 (Q15022 whole entry partner): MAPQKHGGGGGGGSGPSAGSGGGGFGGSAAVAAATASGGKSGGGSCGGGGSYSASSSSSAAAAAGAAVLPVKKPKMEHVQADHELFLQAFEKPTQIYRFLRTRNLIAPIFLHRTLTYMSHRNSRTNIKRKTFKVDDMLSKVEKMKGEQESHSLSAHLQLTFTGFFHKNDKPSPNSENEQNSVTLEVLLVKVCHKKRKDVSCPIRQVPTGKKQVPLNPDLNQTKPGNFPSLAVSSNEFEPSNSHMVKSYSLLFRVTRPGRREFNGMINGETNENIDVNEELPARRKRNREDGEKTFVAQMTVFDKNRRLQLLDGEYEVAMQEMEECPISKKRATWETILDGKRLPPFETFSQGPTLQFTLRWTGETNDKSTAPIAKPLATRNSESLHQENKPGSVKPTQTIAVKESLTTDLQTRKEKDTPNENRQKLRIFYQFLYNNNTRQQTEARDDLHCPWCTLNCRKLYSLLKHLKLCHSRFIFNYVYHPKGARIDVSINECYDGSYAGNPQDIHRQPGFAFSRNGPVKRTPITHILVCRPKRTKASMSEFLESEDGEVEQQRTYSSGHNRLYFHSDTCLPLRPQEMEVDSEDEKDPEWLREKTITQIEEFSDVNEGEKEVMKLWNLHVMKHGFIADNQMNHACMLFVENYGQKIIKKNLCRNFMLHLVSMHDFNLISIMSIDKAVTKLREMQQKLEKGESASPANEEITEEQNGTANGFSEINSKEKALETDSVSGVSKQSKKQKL
Sequence of EZH2 (Q09028 whole entry partner): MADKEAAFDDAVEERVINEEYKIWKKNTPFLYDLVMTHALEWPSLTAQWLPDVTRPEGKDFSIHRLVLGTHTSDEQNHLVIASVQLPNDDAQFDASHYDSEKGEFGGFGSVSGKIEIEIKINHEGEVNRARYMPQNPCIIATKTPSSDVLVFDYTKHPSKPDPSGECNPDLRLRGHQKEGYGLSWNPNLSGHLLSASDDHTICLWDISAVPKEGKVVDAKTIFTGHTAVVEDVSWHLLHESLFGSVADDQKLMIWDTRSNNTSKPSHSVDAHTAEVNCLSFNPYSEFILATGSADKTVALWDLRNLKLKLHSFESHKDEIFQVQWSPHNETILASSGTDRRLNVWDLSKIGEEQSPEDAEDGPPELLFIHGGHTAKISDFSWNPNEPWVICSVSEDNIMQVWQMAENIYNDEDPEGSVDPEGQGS

Compound: Cc1cc(C)c(CNC(=O)c2cc(C3CC3)cc3c2cnn3C(C)C)c(=O)[nH]1 [Compound 2]
- Ki (EZH2): 0.074 ± 0.011 µM
- IC50 (H3K27me3): 2.51 µM

Compound: CCCc1cc(C)[nH]c(=O)c1CNC(=O)c1cc(-c2ccc(N3CCN(C)CC3)nc2)cc2c1cnn2C(C)C [Compound 4]
- Ki (EZH2): 0.0006 ± 5e-05 µM
- IC50 (H3K27me3): 0.079 ± 0.007 µM

Compound: Cc1cc(C)c(CNC(=O)c2cc(-c3ccnc(N4CCN(C)CC4)c3)cc3c2cnn3C(C)C)c(=O)[nH]1 [Compound 5]
- Ki (EZH2): 0.014 ± 0.005 µM
- IC50 (H3K27me3): 2 µM

Compound: CCCc1cc(C)[nH]c(=O)c1CNC(=O)c1cc(-c2ccnc(N3CCN(C)CC3)c2)cc2c1cnn2C(C)C [Compound 6]
- IC50 (H3K27me3): 0.174 ± 0.084 µM

Compound: Cc1ccc(C(=O)NCCCCCC(=O)Nc2ccc(F)cc2N)cc1 [Compound G877]
- cell growth of PC9 DTP with erlotinib (PC9 DTP [1]): effective in reducing cell growth

Compound: CC(=O)Nc1ccc(C(=O)Nc2cc(-c3cccs3)ccc2N)cc1 [Compound G946]
- cell growth of PC9 DTP with erlotinib (PC9 DTP [1]): effective in reducing cell growth

Compound: Nc1nccc2c1ncn2[C@@H]1C=C(CO)[C@@H](O)[C@H]1O [DZNep, 3-deazaneplanocin A]
- cell killing compared to erlotinib alone (PC9 cells; DZNep 0.625 uM with 1 μM erlotinib): 75.8%
- cell killing compared to erlotinib alone (PC9 cells; DZNep 5 uM with 1 μM erlotinib): 87.5%
- effect by itself on PC9 DTP cell viability (PC9 cells; DZNep 0.625 and 5 uM, without erlotinib): not effect
- cell viability in media alone (PC9 cells; DZNep 0.625 to 10 uM, media alone): minimum impact
- PC9 DTP cell viability in combination with erlotinib (PC9 cells; DZNep concentrations as low as 0.625 uM, 1 μM erlotinib): very significantly decrease
- EZH2 levels and trimethylation of lysine 27 on histone H3 [2]: deplete EZH2 levels and to inhibit trimethylation of lysine 27 on histone H3

Compound: CCN(c1cc(-c2ccc(CN3CCOCC3)cc2)cc(C(=O)NCc2c(C)cc(C)[nH]c2=O)c1C)C1CCOCC1 [EPZ-6438, N-((4,6-dimethyl-2-oxo-1,2-dihydropyridin-3-yl)methyl)-5-(ethyl(tetrahydro-2H-pyran-4-yl)amino)-4-methyl-4′-(morpholinomethyl)-[1,1′-biphenyl]-3-carboxamide]
- histone H3K27me3 (H3K27 trimethylation) in PC9 DTPs treated with erlotinib (H3K27me3 in PC9 DTPs): effective in reducing H3K27 trimethylation; also recorded: inhibited
- histone H3K27me3 (H3K27 trimethylation) in EVSAT DTPs treated with GDC-0908 (H3K27me3 in EVSAT DTPs): effective in reducing H3K27 trimethylation; also recorded: inhibited

Compound: CC[C@H](C)n1cc(C)c2c(C(=O)NCc3c(C)cc(C)[nH]c3=O)cc(-c3ccc(N4CCNCC4)nc3)cc21 [GSK126, (S)-1-(sec-butyl)-N-((4,6-dimethyl-2-oxo-1,2-dihydropyridin-3-yl)methyl)-3-methyl-6-(6-(piperazin-1-yl)pyridin-3-yl)-1H-indole-4-carboxamide]
- histone H3K27me3 (H3K27 trimethylation) in PC9 DTPs treated with erlotinib (H3K27me3 in PC9 DTPs): effective in reducing H3K27 trimethylation; also recorded: inhibited
- histone H3K27me3 (H3K27 trimethylation) in EVSAT DTPs treated with GDC-0908 (H3K27me3 in EVSAT DTPs): effective in reducing H3K27 trimethylation; also recorded: inhibited
- cell growth of PC9 DTP with erlotinib (PC9 DTP [3]): effective in reducing cell growth in a dose dependent manner
- cell growth of EVSAT DTP with PI3 kinase inhibitor (EVSAT DTP): effective in reducing cell growth in a dose dependent manner

Compound: CC(/C=C/C(=O)NO)=C\[C@@H](C)C(=O)c1ccc(N(C)C)cc1 [TSA, Trichostatin A]
- effect on radiotherapy drug tolerant cells (SKBR3 cells): significant effect and eliminated radiotherapy drug tolerant cells
- tumor growth, TSA alone (PC9 xenografts; TSA 0.5 mg/kg): no effect
- tumor relapse, combination of erlotinib+TSA (PC9 xenografts; TSA 0.5 mg/kg with erlotinib 50 then 35 mg/kg PO): substantial delay in tumor relapse
